# Test results reported in paper PMC6906348 (Therapeutic Advances in Medical Oncology, 2019).
# System: patients with advanced HCC
# Experiment: Safety: adverse events
# Format: in vivo, human
# Settings: for ALT increased (AE regardless of study drug relationship) / AST increased (AE regardless of study drug relationship) / Abdominal pain (AE regardless of study drug relationship) / Acute kidney injury (AE regardless of study drug relationship) / Anemia (AE regardless of study drug relationship) / Ascites (AE regardless of study drug relationship) / Blood bilirubin increased (AE regardless of study drug relationship) / Blood creatinine increased (AE regardless of study drug relationship) / Constipation (AE regardless of study drug relationship) / Decreased appetite (AE regardless of study drug relationship) / Diarrhea (AE regardless of study drug relationship) / Fatigue (AE regardless of study drug relationship) / Hyperbilirubinemia (AE regardless of study drug relationship) / Hypoalbuminemia (AE regardless of study drug relationship) / Insomnia (AE regardless of study drug relationship) / Leukopenia (AE regardless of study drug relationship) / Nausea (AE regardless of study drug relationship) / Number of patients with at least one event (AE regardless of study drug relationship) / Peripheral edema (AE regardless of study drug relationship) / Platelet count decreased (AE regardless of study drug relationship) / Pyrexia (AE regardless of study drug relationship) / Vomiting (AE regardless of study drug relationship) / Weight decreased (AE regardless of study drug relationship): patients n (%)
# [1] = 300 mg capsule BID n = 9, All grades
# [2] = 300 mg capsule BID n = 9, Grades 3/4
# [3] = 400 mg tablet BID n = 2, All grades
# [4] = 400 mg tablet BID n = 2, Grades 3/4
# [5] = 600 mg capsule BID n = 27, All grades
smiles,measurement,setting,value
CNC(=O)c1ccc(-c2cnc3ncc(Cc4ccc5ncccc5c4)n3n2)cc1F [capmatinib],predefined qualifying adverse events in dose-determining stage,"300 mg BID capsules, first 28 days of treatment, six evaluable patients",No qualifying AEs
same,ALT increased (AE regardless of study drug relationship),[1],0
same,AST increased (AE regardless of study drug relationship),[1],1 (11)
same,Abdominal pain (AE regardless of study drug relationship),[1],2 (22)
same,Acute kidney injury (AE regardless of study drug relationship),[1],2 (22)
same,Anemia (AE regardless of study drug relationship),[1],3 (33)
same,Ascites (AE regardless of study drug relationship),[1],1 (11)
same,Blood bilirubin increased (AE regardless of study drug relationship),[1],2 (22)
same,Blood creatinine increased (AE regardless of study drug relationship),[1],3 (33)
same,Constipation (AE regardless of study drug relationship),[1],2 (22)
same,Decreased appetite (AE regardless of study drug relationship),[1],3 (33)
same,Diarrhea (AE regardless of study drug relationship),[1],5 (56)
same,Fatigue (AE regardless of study drug relationship),[1],3 (33)
same,Hyperbilirubinemia (AE regardless of study drug relationship),[1],0
same,Hypoalbuminemia (AE regardless of study drug relationship),[1],2 (22)
same,Insomnia (AE regardless of study drug relationship),[1],1 (11)
same,Leukopenia (AE regardless of study drug relationship),[1],0
same,Nausea (AE regardless of study drug relationship),[1],6 (67)
same,Number of patients with at least one event (AE regardless of study drug relationship),[1],9 (100)
same,Peripheral edema (AE regardless of study drug relationship),[1],2 (22)
same,Platelet count decreased (AE regardless of study drug relationship),[1],0
same,Pyrexia (AE regardless of study drug relationship),[1],1 (11)
same,Vomiting (AE regardless of study drug relationship),[1],4 (44)
same,Weight decreased (AE regardless of study drug relationship),[1],2 (22)
same,ALT increased (AE regardless of study drug relationship),[2],0
same,AST increased (AE regardless of study drug relationship),[2],1 (11)
same,Abdominal pain (AE regardless of study drug relationship),[2],0
same,Acute kidney injury (AE regardless of study drug relationship),[2],1 (11)
same,Anemia (AE regardless of study drug relationship),[2],2 (22)
same,Ascites (AE regardless of study drug relationship),[2],0
same,Blood bilirubin increased (AE regardless of study drug relationship),[2],1 (11)
same,Blood creatinine increased (AE regardless of study drug relationship),[2],0
same,Constipation (AE regardless of study drug relationship),[2],0
same,Decreased appetite (AE regardless of study drug relationship),[2],0
same,Diarrhea (AE regardless of study drug relationship),[2],1 (11)
same,Fatigue (AE regardless of study drug relationship),[2],0
same,Hyperbilirubinemia (AE regardless of study drug relationship),[2],0
same,Hypoalbuminemia (AE regardless of study drug relationship),[2],1 (11)
same,Insomnia (AE regardless of study drug relationship),[2],0
same,Leukopenia (AE regardless of study drug relationship),[2],0
same,Nausea (AE regardless of study drug relationship),[2],0
same,Number of patients with at least one event (AE regardless of study drug relationship),[2],5 (56)
same,Peripheral edema (AE regardless of study drug relationship),[2],0
same,Platelet count decreased (AE regardless of study drug relationship),[2],0
same,Pyrexia (AE regardless of study drug relationship),[2],0
same,Vomiting (AE regardless of study drug relationship),[2],1 (11)
same,Weight decreased (AE regardless of study drug relationship),[2],0
same,ALT increased (AE regardless of study drug relationship),[3],1 (50)
same,AST increased (AE regardless of study drug relationship),[3],0
same,Abdominal pain (AE regardless of study drug relationship),[3],0
same,Acute kidney injury (AE regardless of study drug relationship),[3],0
same,Anemia (AE regardless of study drug relationship),[3],0
same,Ascites (AE regardless of study drug relationship),[3],0
same,Blood bilirubin increased (AE regardless of study drug relationship),[3],0
same,Blood creatinine increased (AE regardless of study drug relationship),[3],0
same,Constipation (AE regardless of study drug relationship),[3],1 (50)
same,Decreased appetite (AE regardless of study drug relationship),[3],0
same,Diarrhea (AE regardless of study drug relationship),[3],0
same,Fatigue (AE regardless of study drug relationship),[3],1 (50)
same,Hyperbilirubinemia (AE regardless of study drug relationship),[3],0
same,Hypoalbuminemia (AE regardless of study drug relationship),[3],0
same,Insomnia (AE regardless of study drug relationship),[3],1 (50)
same,Leukopenia (AE regardless of study drug relationship),[3],0
same,Nausea (AE regardless of study drug relationship),[3],1 (50)
same,Number of patients with at least one event (AE regardless of study drug relationship),[3],2 (100)
same,Peripheral edema (AE regardless of study drug relationship),[3],0
same,Platelet count decreased (AE regardless of study drug relationship),[3],0
same,Pyrexia (AE regardless of study drug relationship),[3],0
same,Vomiting (AE regardless of study drug relationship),[3],1 (50)
same,Weight decreased (AE regardless of study drug relationship),[3],0
same,ALT increased (AE regardless of study drug relationship),[4],1 (50)
same,AST increased (AE regardless of study drug relationship),[4],0
same,Abdominal pain (AE regardless of study drug relationship),[4],0
same,Acute kidney injury (AE regardless of study drug relationship),[4],0
same,Anemia (AE regardless of study drug relationship),[4],0
same,Ascites (AE regardless of study drug relationship),[4],0
same,Blood bilirubin increased (AE regardless of study drug relationship),[4],0
same,Blood creatinine increased (AE regardless of study drug relationship),[4],0
same,Constipation (AE regardless of study drug relationship),[4],0
same,Decreased appetite (AE regardless of study drug relationship),[4],0
same,Diarrhea (AE regardless of study drug relationship),[4],0
same,Fatigue (AE regardless of study drug relationship),[4],0
same,Hyperbilirubinemia (AE regardless of study drug relationship),[4],0
same,Hypoalbuminemia (AE regardless of study drug relationship),[4],0
same,Insomnia (AE regardless of study drug relationship),[4],0
same,Leukopenia (AE regardless of study drug relationship),[4],0
same,Nausea (AE regardless of study drug relationship),[4],0
same,Number of patients with at least one event (AE regardless of study drug relationship),[4],1 (50)
same,Peripheral edema (AE regardless of study drug relationship),[4],0
same,Platelet count decreased (AE regardless of study drug relationship),[4],0
same,Pyrexia (AE regardless of study drug relationship),[4],0
same,Vomiting (AE regardless of study drug relationship),[4],0
same,Weight decreased (AE regardless of study drug relationship),[4],0
same,ALT increased (AE regardless of study drug relationship),[5],6 (22)
same,AST increased (AE regardless of study drug relationship),[5],11 (41)
